In PubChem BioAssay AID1259407 (Chemical Carcinogenesis Research Information System (CCRIS), 2018):
Calls of active or inactive are those of the source. No rule for the calls is given here.

Test system: CCRIS mutagenicity, Ames/micronucleus/aberration tests
Test: CCRIS mutagenicity studies
From the text: The CCRIS database contains chemical records with carcinogenicity, mutagenicity, tumor promotion, and tumor inhibition test results. It was developed by the National Cancer Institute (NCI). Data are derived from studies cited in primary journals, current awareness tools, NCI reports, and other sources. Test results have been reviewed by experts in carcinogenesis and mutagenesis.
CCRIS provides historical information from the years 1985 - 2011. It is no longer updated.
This is an archive assay for CCRIS mutagenicity studies.

[1] = Test System: AMES SALMONELLA TYPHIMURIUM, Strain/Indicator: TA98, Metabolic Activation: NONE, Method: STANDARD PLATE
[2] = Test System: AMES SALMONELLA TYPHIMURIUM, Strain/Indicator: TA100, Metabolic Activation: NONE, Method: STANDARD PLATE
[3] = Test System: AMES SALMONELLA TYPHIMURIUM, Strain/Indicator: TA98, Metabolic Activation: RAT, LIVER, S-9, AROCLOR 1254, Method: STANDARD PLATE
[4] = Test System: AMES SALMONELLA TYPHIMURIUM, Strain/Indicator: TA100, Metabolic Activation: RAT, LIVER, S-9, AROCLOR 1254, Method: STANDARD PLATE

Nc1ccc(-c2cc(Cl)c(N)cc2[N+](=O)[O-])cc1Cl
mutagenic call (Test System: Ames Salmonella typhimurium, Strain/Indicator: TA98, Metabolic Activation: None, Method: Preincubation): active; positive. weak response. | mutagenic call (Test System: Ames Salmonella typhimurium, Strain/Indicator: TA98, Metabolic Activation: Rat, Liver, S-9, Phenobarbital and 5,6-benzoflavone, Method: Preincubation): active; positive | mutagenic call (Test System: Ames Salmonella typhimurium, Strain/Indicator: TA100, Metabolic Activation: None, Method: Preincubation): inactive; negative | mutagenic call (Test System: Ames Salmonella typhimurium, Strain/Indicator: TA100, Metabolic Activation: Rat, Liver, S-9, Phenobarbital and 5,6-benzoflavone, Method: Preincubation): active; positive. weak response. | mutagenic call (Test System: Ames Salmonella typhimurium, Strain/Indicator: YG1024, Metabolic Activation: None, Method: Preincubation): active; positive | mutagenic call (Test System: Ames Salmonella typhimurium, Strain/Indicator: YG1024, Metabolic Activation: Rat, Liver, S-9, Phenobarbital and 5,6-benzoflavone, Method: Preincubation): active; positive | mutagenic call (Test System: Ames Salmonella typhimurium, Strain/Indicator: YG1029, Metabolic Activation: None, Method: Preincubation): inactive; negative | mutagenic call (Test System: Ames Salmonella typhimurium, Strain/Indicator: YG1029, Metabolic Activation: Rat, Liver, S-9, Phenobarbital and 5,6-benzoflavone, Method: Preincubation): active; positive. weak response.

O=[N+]([O-])c1cccc(CO/N=C/c2nc3cc([N+](=O)[O-])ccc3n2Cc2ccc(Cl)cc2)c1
mutagenic call [1]: inactive; negative | mutagenic call (Test System: AMES SALMONELLA TYPHIMURIUM, Strain/Indicator: TA98, Metabolic Activation: RAT, LIVER, S-9, PHENOBARBITAL AND BETA-NAPHTHOFLAVONE, Method: STANDARD PLATE): inactive; negative | mutagenic call [2]: inactive; negative | mutagenic call (Test System: AMES SALMONELLA TYPHIMURIUM, Strain/Indicator: TA100, Metabolic Activation: RAT, LIVER, S-9, PHENOBARBITAL AND BETA-NAPHTHOFLAVONE, Method: STANDARD PLATE): inactive; negative

Nc1nc(N)nc(Cl)n1
mutagenic call (Test System: AMES SALMONELLA TYPHIMURIUM, Strain/Indicator: TA97, Metabolic Activation: NONE, Method: STANDARD PLATE): inactive; negative | mutagenic call [1]: inactive; negative | mutagenic call [2]: inactive; negative

COc1nsc2cc(N)ccc12
mutagenic call (Test System: AMES SALMONELLA TYPHIMURIUM, Strain/Indicator: TA98, Metabolic Activation: S-9, Method: STANDARD PLATE): active; positive

CC(=O)OCC(=O)NCCCOc1cccc(CN2CCCCC2)c1
mutagenic call (Test System: AMES SALMONELLA TYPHIMURIUM, Strain/Indicator: TA98, Metabolic Activation: NONE): inactive; negative | mutagenic call (Test System: AMES SALMONELLA TYPHIMURIUM, Strain/Indicator: TA98, Metabolic Activation: RAT, LIVER, S-9, PHENOBARBITAL AND 5,6-BENZOFLAVONE): inactive; negative | mutagenic call (Test System: AMES SALMONELLA TYPHIMURIUM, Strain/Indicator: TA100, Metabolic Activation: NONE): inactive; negative | mutagenic call (Test System: AMES SALMONELLA TYPHIMURIUM, Strain/Indicator: TA100, Metabolic Activation: RAT, LIVER, S-9, PHENOBARBITAL AND 5,6-BENZOFLAVONE): inactive; negative | mutagenic call (Test System: AMES SALMONELLA TYPHIMURIUM, Strain/Indicator: TA1535, Metabolic Activation: NONE): inactive; negative | mutagenic call (Test System: AMES SALMONELLA TYPHIMURIUM, Strain/Indicator: TA1535, Metabolic Activation: RAT, LIVER, S-9, PHENOBARBITAL AND 5,6-BENZOFLAVONE): inactive; negative | mutagenic call (Test System: AMES SALMONELLA TYPHIMURIUM, Strain/Indicator: TA1537, Metabolic Activation: NONE): inactive; negative | mutagenic call (Test System: AMES SALMONELLA TYPHIMURIUM, Strain/Indicator: TA1537, Metabolic Activation: RAT, LIVER, S-9, PHENOBARBITAL AND 5,6-BENZOFLAVONE): inactive; negative | mutagenic call (Test System: AMES SALMONELLA TYPHIMURIUM, Strain/Indicator: TA1538, Metabolic Activation: NONE): inactive; negative | mutagenic call (Test System: AMES SALMONELLA TYPHIMURIUM, Strain/Indicator: TA1538, Metabolic Activation: RAT, LIVER, S-9, PHENOBARBITAL AND 5,6-BENZOFLAVONE): inactive; negative | mutagenic call (Test System: E. COLI, Strain/Indicator: WP2 UVRA, Metabolic Activation: NONE): inactive; negative | mutagenic call (Test System: E. COLI, Strain/Indicator: WP2 UVRA, Metabolic Activation: RAT, LIVER, S-9, PHENOBARBITAL AND 5,6-BENZOFLAVONE): inactive; negative

COC(=O)CCC(=O)OC
mutagenic call (Test System: AMES SALMONELLA TYPHIMURIUM, Strain/Indicator: TA97, Metabolic Activation: HAMSTER, LIVER, S-9, AROCLOR 1254 (10 OR 30%), Method: PREINCUBATION): inactive; negative | mutagenic call (Test System: AMES SALMONELLA TYPHIMURIUM, Strain/Indicator: TA97, Metabolic Activation: NONE, Method: PREINCUBATION): inactive; negative | mutagenic call (Test System: AMES SALMONELLA TYPHIMURIUM, Strain/Indicator: TA97, Metabolic Activation: RAT, LIVER, S-9, AROCLOR 1254 (10 OR 30%), Method: PREINCUBATION): inactive; negative | mutagenic call (Test System: AMES SALMONELLA TYPHIMURIUM, Strain/Indicator: TA98, Metabolic Activation: HAMSTER, LIVER, S-9, AROCLOR 1254 (10 OR 30%), Method: PREINCUBATION): inactive; negative | mutagenic call (Test System: AMES SALMONELLA TYPHIMURIUM, Strain/Indicator: TA98, Metabolic Activation: NONE, Method: PREINCUBATION): inactive; negative | mutagenic call [1]: inactive; negative | mutagenic call (Test System: AMES SALMONELLA TYPHIMURIUM, Strain/Indicator: TA98, Metabolic Activation: RAT, LIVER, S-9, AROCLOR 1254 (10 OR 30%), Method: PREINCUBATION): inactive; negative | mutagenic call [3]: inactive; negative | mutagenic call (Test System: AMES SALMONELLA TYPHIMURIUM, Strain/Indicator: TA100, Metabolic Activation: HAMSTER, LIVER, S-9, AROCLOR 1254 (10 OR 30%), Method: PREINCUBATION): inactive; negative | mutagenic call (Test System: AMES SALMONELLA TYPHIMURIUM, Strain/Indicator: TA100, Metabolic Activation: NONE, Method: PREINCUBATION): inactive; negative | mutagenic call [2]: inactive; negative | mutagenic call (Test System: AMES SALMONELLA TYPHIMURIUM, Strain/Indicator: TA100, Metabolic Activation: RAT, LIVER, S-9, AROCLOR 1254 (10 OR 30%), Method: PREINCUBATION): inactive; negative | mutagenic call [4]: inactive; negative | mutagenic call (Test System: AMES SALMONELLA TYPHIMURIUM, Strain/Indicator: TA1535, Metabolic Activation: HAMSTER, LIVER, S-9, AROCLOR 1254 (10 OR 30%), Method: PREINCUBATION): inactive; negative | mutagenic call (Test System: AMES SALMONELLA TYPHIMURIUM, Strain/Indicator: TA1535, Metabolic Activation: NONE, Method: PREINCUBATION): inactive; negative | mutagenic call (Test System: AMES SALMONELLA TYPHIMURIUM, Strain/Indicator: TA1535, Metabolic Activation: NONE, Method: STANDARD PLATE): inactive; negative | mutagenic call (Test System: AMES SALMONELLA TYPHIMURIUM, Strain/Indicator: TA1535, Metabolic Activation: RAT, LIVER, S-9, AROCLOR 1254 (10 OR 30%), Method: PREINCUBATION): inactive; negative | mutagenic call (Test System: AMES SALMONELLA TYPHIMURIUM, Strain/Indicator: TA1535, Metabolic Activation: RAT, LIVER, S-9, AROCLOR 1254, Method: STANDARD PLATE): inactive; negative | mutagenic call (Test System: AMES SALMONELLA TYPHIMURIUM, Strain/Indicator: TA1537, Metabolic Activation: NONE, Method: STANDARD PLATE): inactive; negative | mutagenic call (Test System: AMES SALMONELLA TYPHIMURIUM, Strain/Indicator: TA1537, Metabolic Activation: RAT, LIVER, S-9, AROCLOR 1254, Method: STANDARD PLATE): inactive; negative

Cl/C=C(/Cl)c1c(Cl)c(Cl)c(Cl)c(Cl)c1Cl
mutagenic call [1]: inactive; negative | mutagenic call [3]: inactive; negative | mutagenic call [2]: inactive; negative | mutagenic call [4]: inactive; negative

Cc1cccc(N=O)c1
mutagenic call (Test System: AMES SALMONELLA TYPHIMURIUM, Strain/Indicator: TA98, Metabolic Activation: RAT, LIVER, S-9, AROCLOR 1254, Method: PREINCUBATION): inactive; negative

O=c1c2c(O)cccc2oc2c3c(cc(O)c12)O[C@H]1OC=C[C@@H]31
mutagenic call (Test System: AMES SALMONELLA TYPHIMURIUM, Strain/Indicator: TA98, Metabolic Activation: RAT, LIVER, S-9, PHENOBARBITAL, Method: STANDARD PLATE): inactive; negative | mutagenic call (Test System: AMES SALMONELLA TYPHIMURIUM, Strain/Indicator: TA100, Metabolic Activation: RAT, LIVER, S-9, PHENOBARBITAL, Method: STANDARD PLATE): active; positive
